For one assay, the system named is NK-92 cells. Description: NK-92 cell growth by MTT assay. It counts as cell-based. The settings on record: Pom 0.03-3 μM, 72 h. On the procedure: (§1) (A) NK-92 cells were cultured with Pom (0.5 and 1 μM) for 24 h. Whole cell lysates were subjected to immunoblotting using indicated Abs. (B) NK-92 cells were cultured with Pom (0.5 and 1 μM) for 48 h. The cells were subsequently incubated with calcein-AM-stained U266 cells for 4 h at the indicated effector/target (E/T) ratios. Percent specific lysis was calculated as described previously. (C) NK-92 cells were cultured with Pom (0.03-3 μM) for 72 h. Cell growth was assessed by MTT assay. (D) NK-92 cells were transfected with scrambled (Sc) or Zap-70 siRNA (Zap70si). After 72 h incubation, cell viability was measured by trypan-blue dye exclusion. For B, C, and D, data are representative of at least two independent experiments, and values are expressed in mean±SD.

Assay [1] addresses T1, Zap-70 (Homo sapiens, UniProt P43403).
T1 sequence (P43403 1-619): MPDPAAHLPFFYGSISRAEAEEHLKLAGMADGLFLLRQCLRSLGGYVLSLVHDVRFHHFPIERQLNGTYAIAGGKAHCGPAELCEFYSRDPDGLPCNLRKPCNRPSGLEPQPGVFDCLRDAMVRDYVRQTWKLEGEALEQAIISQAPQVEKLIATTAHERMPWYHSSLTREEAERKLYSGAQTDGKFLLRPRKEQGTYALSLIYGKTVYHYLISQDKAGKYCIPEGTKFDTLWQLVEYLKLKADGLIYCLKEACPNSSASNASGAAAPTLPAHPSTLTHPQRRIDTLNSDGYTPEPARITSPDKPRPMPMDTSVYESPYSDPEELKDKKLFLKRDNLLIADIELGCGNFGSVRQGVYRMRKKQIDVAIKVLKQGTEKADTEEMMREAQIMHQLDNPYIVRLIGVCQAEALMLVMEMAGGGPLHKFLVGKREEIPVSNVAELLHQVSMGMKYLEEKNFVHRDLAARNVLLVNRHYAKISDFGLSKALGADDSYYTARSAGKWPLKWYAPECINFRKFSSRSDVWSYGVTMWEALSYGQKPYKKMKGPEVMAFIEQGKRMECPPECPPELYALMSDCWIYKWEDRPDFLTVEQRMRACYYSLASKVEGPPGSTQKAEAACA
The experiment in a line: Immunoblotting of p-Zap-70 in NK-92 cells. It counts as cell-based. As to conditions: 24 h, Pom 0.5 and 1 μM, CC-220 0.01, 0.1, 1 μM. As for the experimental part:
as §1
(A) NK-92 cells were cultured with Len (1 μM), Pom (0.01, 0.1, 1 μM) or CC-220 (0.01, 0.1, 1 μM) for 24 h. Whole cell lysates were subjected to immunoblotting using indicated Abs. (B) NK-92 cells were cultured with Pom (0.1 and 1 μM) or CC-220 ([…]) for 48 h. NK cell activity was measured by incubation with calcein AM-labeled U266 cells for 4 h at E/T ratio of 2.5/1. Percent specific lysis was calculated as previously described. Data are representative of three independent experiments, and values are expressed in mean±SD. *: p<0.01.

The target of assay [2] is T1, Zap-70. The experiment in a line: Saturation-transfer difference (STD) NMR binding to recombinant Zap-70. More on the design: purchased Origene, Rockville, MD. The settings on record: Pom 320 μM, Len 2.56 mM, ATP 2.56 mM, Zap-70 approximately 2 μM, deuterated PBS. As for the experimental part: (A) Jurkat cells were transfected with scrambled (Sc) siRNA or Zap-70 siRNA. Whole cell lysates were subjected to immunoblotting using indicated Abs. (B) Jurkat cells were treated with lenalidomide ([…]) or pomalidomide (1 and 3 μM) for 4 h and 8 h. Whole cell lysates were subjected to p-Zap ELISA assay. (C) Jurkat whole cell lysates were incubated with pomalidomide-beads in the presence or absence of competitor (1 mM free pomalidomide) for 1 h. After elution, samples were subjected to immunoblotting using anti-Zap-70 Ab. (D) Saturation-transfer difference resulting from the binding of pomalidomide to Zap-70. Pomalidomide is at 320 μM and Zap-70 is approximately 2 μM in deuterated PBS solution. […] (E) Saturation-transfer difference resulting from the binding of pomalidomide to Zap-70 in the presence of 2.56 mMATP. Pomalidomide is at 320 μM and Zap-70 is approximately 2 μM in deuterated PBS solution. […] Note that both ATP and pomalidomide show binding the Zap-70. (F) Non-cell based Zap-70 kinase assay was carried out, according to manufacturer's protocol.
(A) Saturation-transfer difference resulting from the binding of lenalidomide to Zap-70, with lenalidomide (2.56 mM) and Zap-70 (2 μM) in deuterated PBS solution. […] (B) Saturation-transfer difference resulting from the binding of lenalidomide to Zap70 in the presence of 2.56 mM ATP, with lenalidomide (2.56 mM) and Zap-70 (2 μM) in deuterated PBS solution.
Commercial recombinant Zap-70 (Origene, Rockville, MD) was prepared by gel filtration buffer exchange into deuterated phosphate-buffered saline (PBS), which removed any components of the protein storage buffer, including glycerol. Len and Pom were made as d6-DMSO stock solutions and frozen in aliquots prior to use. ATP was stored frozen in aliquots at −20° C. in deuterated PBS. NMR samples were prepared in 5 mm SampleJet tubes to a final volume of 500 μl by adding 5-20 μl of the appropriate IMiD stock solution to the buffer-exchanged protein. The final concentration of protein in the NMR samples was approximately 2 μM. […]

Structures are written as SMILES.

Take `Nc1cccc2c1C(=O)N(C1CCC(=O)NC1=O)C2=O` (stereo not drawn) [pomalidomide]: the “cell growth (MTT)” value in the assay with NK-92 cells was “neither Pom nor Zap-70 KD altered growth in NK-92 cells”. Moreover, the “p-Zap-70 (immunoblotting)” value on Zap-70 [1] is on record as “induced increased p-Zap70”. Also, the “direct binding to Zap-70 (STD NMR)” value at Zap-70 [2] is listed as “directly binds to Zap-70”.
